Data reported in the supplement of paper PMC11451515.

Tested on: SEM cells
Experiment: cell viability relative to DMSO control; higher = less cytotoxic
Conditions: 48 h
In short: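 Leukemia cells (NOMO1 or SEM, 500 cells/well; P12-Ichikawa, 1000 cells/well) were seeded in 5 μl in 1536-well plates after at least four passages of adaptation to each medium. They received library compounds in DMSO by pin dosing, 11 threefold points from 47 μM to 0.79 nM. Luminescence with CellTiter-Glo One was read after 48 h at 37°C. Viability is stated per plate relative to DMSO wells, with cell-free wells as background.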

[1] = HPLM + 10% dialyzed FBS, 0.000781 µM
[2] = HPLM + 10% dialyzed FBS, 0.00234 µM
[3] = HPLM + 10% dialyzed FBS, 0.00702 µM
[4] = HPLM + 10% dialyzed FBS, 0.0211 µM
[5] = HPLM + 10% dialyzed FBS, 0.0632 µM
[6] = HPLM + 10% dialyzed FBS, 0.19 µM
[7] = HPLM + 10% dialyzed FBS, 0.569 µM
[8] = HPLM + 10% dialyzed FBS, 1.71 µM
[9] = HPLM + 10% dialyzed FBS, 5.12 µM
[10] = HPLM + 10% dialyzed FBS, 15.4 µM
[11] = HPLM + 10% dialyzed FBS, 46.1 µM
[12] = RPMI 5 mM glucose + 10% FBS, 0.000781 µM
[13] = RPMI 5 mM glucose + 10% FBS, 0.00234 µM
[14] = RPMI 5 mM glucose + 10% FBS, 0.00702 µM
[15] = RPMI 5 mM glucose + 10% FBS, 0.0211 µM
[16] = RPMI 5 mM glucose + 10% FBS, 0.0632 µM
[17] = RPMI 5 mM glucose + 10% FBS, 0.19 µM
[18] = RPMI 5 mM glucose + 10% FBS, 0.569 µM
[19] = RPMI 5 mM glucose + 10% FBS, 1.71 µM
[20] = RPMI 5 mM glucose + 10% FBS, 5.12 µM
[21] = RPMI 5 mM glucose + 10% FBS, 15.4 µM
[22] = RPMI 5 mM glucose + 10% FBS, 46.1 µM
[23] = RPMI 5 mM glucose + 10% dialyzed FBS, 0.000781 µM
[24] = RPMI 5 mM glucose + 10% dialyzed FBS, 0.00234 µM
[25] = RPMI 5 mM glucose + 10% dialyzed FBS, 0.00702 µM
[26] = RPMI 5 mM glucose + 10% dialyzed FBS, 0.0211 µM
[27] = RPMI 5 mM glucose + 10% dialyzed FBS, 0.0632 µM
[28] = RPMI 5 mM glucose + 10% dialyzed FBS, 0.19 µM
[29] = RPMI 5 mM glucose + 10% dialyzed FBS, 0.569 µM
[30] = RPMI 5 mM glucose + 10% dialyzed FBS, 1.71 µM
[31] = RPMI 5 mM glucose + 10% dialyzed FBS, 5.12 µM
[32] = RPMI 5 mM glucose + 10% dialyzed FBS, 15.4 µM
[33] = RPMI 5 mM glucose + 10% dialyzed FBS, 46.1 µM

SMILES	cell viability [1] [%]	cell viability [2] [%]	cell viability [3] [%]	cell viability [4] [%]	cell viability [5] [%]	cell viability [6] [%]	cell viability [7] [%]	cell viability [8] [%]	cell viability [9] [%]	cell viability [10] [%]	cell viability [11] [%]	cell viability [12] [%]	cell viability [13] [%]	cell viability [14] [%]	cell viability [15] [%]	cell viability [16] [%]	cell viability [17] [%]	cell viability [18] [%]	cell viability [19] [%]	cell viability [20] [%]	cell viability [21] [%]	cell viability [22] [%]	cell viability [23] [%]	cell viability [24] [%]	cell viability [25] [%]	cell viability [26] [%]	cell viability [27] [%]	cell viability [28] [%]	cell viability [29] [%]	cell viability [30] [%]	cell viability [31] [%]	cell viability [32] [%]	cell viability [33] [%]
CN[C@@H]1[C@@H](O)[C@@H](O[C@@H]2[C@@H](O)[C@H](O[C@H]3O[C@H](CN)[C@@H](O)[C@H](O)[C@H]3O)[C@@H](N)C[C@H]2NC(=O)[C@@H](O)CN)OC[C@]1(C)O	116	100	108	107	91.9	105	105	98.9	98	102	97.1	118	116	125	129	129	111	123	111	111	120	124	121	124	118	125	136	115	135	106	127	129	101
OC(c1cc(C(F)(F)F)nc2c(C(F)(F)F)cccc12)C1CCCCN1 (stereo not given)	103	115	109	116	117	139	91.8	54.7	126	132	7.71	117	118	131	149	133	138	93.9	63.4	132	114	9.68	117	130	122	136	135	129	81.2	47.8	137	130	10.3
CC(C)c1nc(CN(C)C(=O)N[C@H](C(=O)N[C@@H](Cc2ccccc2)C[C@H](O)[C@H](Cc2ccccc2)NC(=O)OCc2cncs2)C(C)C)cs1	84.8	90.5	101	87.5	96.2	91.6	85	85.1	81.5	62.6	74.4	94.9	103	110	103	90.7	89.7	84.8	88.8	87.3	80.1	87.5	104	113	98.4	85	106	86.1	94.8	105	92.4	88.1	99.8
CN(C)C1CCN(C(=O)c2ccc(NC(=O)Nc3nc(N4CCOCC4)nc(N4CCOCC4)n3)cc2)CC1	83.9	92.1	81.5	67.4	61.7	49.7	41.8	31.2	30.9	23.8	19.3	87.9	78.9	94.3	75.1	65.3	48.4	39.3	27.4	25.6	17.8	11.9	78.1	85.8	79.4	70.9	57.2	52.5	41.9	33.4	32.1	22	14.6
CC1(C)O[C@@H]2C[C@H]3[C@@H]4C[C@H](F)C5=CC(=O)C=C[C@]5(C)[C@@]4(F)[C@@H](O)C[C@]3(C)[C@]2(C(=O)CO)O1	97.9	98.7	91.3	83.5	58.3	51.5	41	44.9	43.8	54.4	45.4	98.3	120	87.1	82.6	65.5	63.2	63.4	49.5	51.1	56.1	53.7	116	109	98.4	91.3	59.6	55.2	39.1	51.7	47.8	44.6	49.2
CC(C)(C)OC(=O)N[C@H]1CCCCC/C=C\[C@@H]2C[C@@]2(C(=O)N[S+](=O)([O-])C2CC2)NC(=O)[C@@H]2C[C@@H](OC(=O)N3Cc4cccc(F)c4C3)CN2C1=O	71.4	83.9	83.5	75.7	97.3	89	92.1	79.8	84	86.6	80.2	96.1	99.7	84.5	73.4	102	88.9	101	103	93.4	90.2	85.4	85.2	91.9	93.4	105	94.9	98.5	121	115	93	91.6	81.3
CC(C)CNc1ccnc(NCc2csc(-c3ccccc3)n2)n1	88.4	107	104	100	121	113	107	120	108	64.2	61.1	110	110	127	113	138	145	142	138	113	88.9	68.2	–	–	–	–	–	–	–	–	–	–	–
